In ChEMBL document CHEMBL4376853, “Synthesis and structure-activity relationship studies of α-naphthoflavone derivatives as CYP1B1 inhibitors” (Eur J Med Chem, 2020):

Molecular target: T1, Cytochrome P450 1B1 (Homo sapiens, UniProt Q16678)
T1 sequence (Q16678 whole entry): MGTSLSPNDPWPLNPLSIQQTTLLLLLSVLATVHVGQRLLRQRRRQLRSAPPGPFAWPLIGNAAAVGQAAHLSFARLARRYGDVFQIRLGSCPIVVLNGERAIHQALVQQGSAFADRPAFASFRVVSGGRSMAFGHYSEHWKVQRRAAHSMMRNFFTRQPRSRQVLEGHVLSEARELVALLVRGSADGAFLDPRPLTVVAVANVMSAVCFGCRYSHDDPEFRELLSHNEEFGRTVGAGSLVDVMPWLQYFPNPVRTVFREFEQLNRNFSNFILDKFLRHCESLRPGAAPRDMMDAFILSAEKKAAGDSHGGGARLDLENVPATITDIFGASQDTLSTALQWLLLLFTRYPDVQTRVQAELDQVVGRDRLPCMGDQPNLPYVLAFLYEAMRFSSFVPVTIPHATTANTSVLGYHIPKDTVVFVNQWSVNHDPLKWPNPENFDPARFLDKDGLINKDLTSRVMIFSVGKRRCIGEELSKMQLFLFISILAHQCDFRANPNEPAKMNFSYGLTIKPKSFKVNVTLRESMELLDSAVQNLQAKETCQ
Assay: Inhibition of human recombinant CYP1B1 using 7-ethoxyresorufin as substrate in presence of glucose-6-phosphate, glucose-6-phosphate dehydrogenase and NADPH-generating system incubated for 35 mins by fluorometry

IC50 [nM] | Structure (SMILES)
2.2 | O=c1cc(-c2cccc(F)c2)oc2c1ccc1ccccc12
5 | Fc1cccc(-c2cc(=S)c3ccc4ccccc4c3o2)c1
7.3 | COc1ccc(-c2cc(=O)c3ccc4ccccc4c3o2)cc1
3.2 | COc1cc(Cl)cc(-c2cc(=O)c3ccc4ccccc4c3o2)c1
9.3 | O=c1cc(-c2ccncc2)oc2c1ccc1ccccc12
6.2 | O=c1cc(-c2cccnc2)oc2c1ccc1ccccc12
3.3 | O=c1cc(-c2ccccc2F)oc2c1ccc1ccccc12
57 | O=c1cc(-c2ccccc2)sc2c1ccc1ccccc12
3.2 | O/N=c1\cc(-c2ccccc2)oc2c1ccc1ccccc12
4.2 | O=c1cc(-c2cc(Cl)cc(Cl)c2)oc2c1ccc1ccccc12
5.6 | O=c1cc(-c2ccc(F)c(F)c2)oc2c1ccc1ccccc12
89.7 | O=c1cc(-c2ccccc2Cl)sc2c1ccc1ccccc12
24.6 | CN1CCN(c2cccc(-c3cc(=O)c4ccc5ccccc5c4o3)c2)CC1
9.4 | S=c1cc(-c2cccc(Cl)c2)oc2c1ccc1ccccc12
40.5 | O=c1cc(-c2cccc(Cl)c2)sc2c1ccc1ccccc12
1.6 | S=c1cc(-c2ccc(Cl)cc2)oc2c1ccc1ccccc12
3.5 | O=c1cc(-c2ccccn2)oc2c1ccc1ccccc12
5.1 | COc1cc(-c2cc(=O)c3ccc4ccccc4c3o2)cc(OC)c1OC

Molecular target: T2, Cytochrome P450 1A1 (Homo sapiens, UniProt P04798)
T2 sequence (P04798 whole entry): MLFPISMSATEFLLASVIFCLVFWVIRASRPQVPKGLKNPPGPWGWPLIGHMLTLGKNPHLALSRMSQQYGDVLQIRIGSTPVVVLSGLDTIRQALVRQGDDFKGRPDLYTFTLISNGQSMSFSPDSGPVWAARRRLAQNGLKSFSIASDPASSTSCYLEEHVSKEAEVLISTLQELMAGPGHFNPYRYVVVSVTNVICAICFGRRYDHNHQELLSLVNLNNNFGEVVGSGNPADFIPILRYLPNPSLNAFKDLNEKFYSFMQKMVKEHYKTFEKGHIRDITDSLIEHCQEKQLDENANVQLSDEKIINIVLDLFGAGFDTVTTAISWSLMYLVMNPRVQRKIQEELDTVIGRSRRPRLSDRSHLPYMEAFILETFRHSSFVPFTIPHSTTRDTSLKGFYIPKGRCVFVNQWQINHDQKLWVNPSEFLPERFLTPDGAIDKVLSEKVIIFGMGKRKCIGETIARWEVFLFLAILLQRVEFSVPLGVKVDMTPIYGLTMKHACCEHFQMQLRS
Assay: Inhibition of human recombinant CYP1A1 using 7-ethoxyresorufin as substrate in presence of glucose-6-phosphate, glucose-6-phosphate dehydrogenase and NADPH-generating system incubated for 15 mins by fluorometry
Type: ADME

IC50 [nM] | Structure (SMILES)
16.7 | O=c1cc(-c2cccc(F)c2)oc2c1ccc1ccccc12
25.1 | Fc1cccc(-c2cc(=S)c3ccc4ccccc4c3o2)c1
30.9 | COc1ccc(-c2cc(=O)c3ccc4ccccc4c3o2)cc1
164 | COc1cc(Cl)cc(-c2cc(=O)c3ccc4ccccc4c3o2)c1
18.7 | O=c1cc(-c2ccncc2)oc2c1ccc1ccccc12
25.3 | O=c1cc(-c2cccnc2)oc2c1ccc1ccccc12
12.2 | O=c1cc(-c2ccccc2F)oc2c1ccc1ccccc12
32.6 | O=c1cc(-c2ccccc2)sc2c1ccc1ccccc12
32.1 | O/N=c1\cc(-c2ccccc2)oc2c1ccc1ccccc12
25.5 | O=c1cc(-c2cc(Cl)cc(Cl)c2)oc2c1ccc1ccccc12
11.8 | O=c1cc(-c2ccc(F)c(F)c2)oc2c1ccc1ccccc12
45.8 | O=c1cc(-c2ccccc2Cl)sc2c1ccc1ccccc12
34.6 | CN1CCN(c2cccc(-c3cc(=O)c4ccc5ccccc5c4o3)c2)CC1
31.7 | S=c1cc(-c2cccc(Cl)c2)oc2c1ccc1ccccc12
13.6 | O=c1cc(-c2cccc(Cl)c2)sc2c1ccc1ccccc12
9.6 | S=c1cc(-c2ccc(Cl)cc2)oc2c1ccc1ccccc12
37.9 | O=c1cc(-c2ccccn2)oc2c1ccc1ccccc12
3 | COc1cc(-c2cc(=O)c3ccc4ccccc4c3o2)cc(OC)c1OC

Molecular target: T3, Cytochrome P450 1A2 (Homo sapiens, UniProt P05177)
T3 sequence (P05177 whole entry): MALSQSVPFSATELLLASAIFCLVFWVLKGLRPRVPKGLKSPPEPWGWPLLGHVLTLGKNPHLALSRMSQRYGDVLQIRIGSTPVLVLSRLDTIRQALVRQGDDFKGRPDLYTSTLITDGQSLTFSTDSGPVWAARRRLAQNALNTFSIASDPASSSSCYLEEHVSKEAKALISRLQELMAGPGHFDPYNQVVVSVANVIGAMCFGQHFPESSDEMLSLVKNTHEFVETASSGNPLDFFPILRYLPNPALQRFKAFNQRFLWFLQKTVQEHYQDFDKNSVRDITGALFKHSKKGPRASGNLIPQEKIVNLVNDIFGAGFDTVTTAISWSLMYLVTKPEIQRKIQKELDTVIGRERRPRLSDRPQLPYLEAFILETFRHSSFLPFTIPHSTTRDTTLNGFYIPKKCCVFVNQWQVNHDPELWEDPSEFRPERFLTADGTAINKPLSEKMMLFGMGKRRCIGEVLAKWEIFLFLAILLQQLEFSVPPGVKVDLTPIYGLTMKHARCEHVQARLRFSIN
Assay: Inhibition of human recombinant CYP1A2 using 7-ethoxyresorufin as substrate in presence of glucose-6-phosphate, glucose-6-phosphate dehydrogenase and NADPH-generating system incubated for 50 mins by fluorometry
Type: ADME

IC50 [nM] | Structure (SMILES)
62.2 | O=c1cc(-c2cccc(F)c2)oc2c1ccc1ccccc12
134 | Fc1cccc(-c2cc(=S)c3ccc4ccccc4c3o2)c1
98.2 | COc1ccc(-c2cc(=O)c3ccc4ccccc4c3o2)cc1
> 1000 | COc1cc(Cl)cc(-c2cc(=O)c3ccc4ccccc4c3o2)c1
36.4 | O=c1cc(-c2ccncc2)oc2c1ccc1ccccc12
23.2 | O=c1cc(-c2cccnc2)oc2c1ccc1ccccc12
23.7 | O=c1cc(-c2ccccc2F)oc2c1ccc1ccccc12
> 1000 | O=c1cc(-c2ccccc2)sc2c1ccc1ccccc12
74.6 | O/N=c1\cc(-c2ccccc2)oc2c1ccc1ccccc12
157 | O=c1cc(-c2cc(Cl)cc(Cl)c2)oc2c1ccc1ccccc12
28.6 | O=c1cc(-c2ccc(F)c(F)c2)oc2c1ccc1ccccc12
> 1000 | O=c1cc(-c2ccccc2Cl)sc2c1ccc1ccccc12
762 | CN1CCN(c2cccc(-c3cc(=O)c4ccc5ccccc5c4o3)c2)CC1
304 | S=c1cc(-c2cccc(Cl)c2)oc2c1ccc1ccccc12
296 | O=c1cc(-c2cccc(Cl)c2)sc2c1ccc1ccccc12
53.2 | S=c1cc(-c2ccc(Cl)cc2)oc2c1ccc1ccccc12
25.1 | O=c1cc(-c2ccccn2)oc2c1ccc1ccccc12
> 1000 | COc1cc(-c2cc(=O)c3ccc4ccccc4c3o2)cc(OC)c1OC

Organism: Homo sapiens
Assay: Selectivity index, ratio of IC50 for human recombinant CYP1A1 to IC50 for human recombinant CYP1B1 using 7-ethoxyresorufin as substrate in presence of glucose-6-phosphate, glucose-6-phosphate dehydrogenase and NADPH-generating system by fluorometry

Ratio IC50 | Structure (SMILES)
7.6 | O=c1cc(-c2cccc(F)c2)oc2c1ccc1ccccc12
5 | Fc1cccc(-c2cc(=S)c3ccc4ccccc4c3o2)c1
4.2 | COc1ccc(-c2cc(=O)c3ccc4ccccc4c3o2)cc1
51.2 | COc1cc(Cl)cc(-c2cc(=O)c3ccc4ccccc4c3o2)c1
2 | O=c1cc(-c2ccncc2)oc2c1ccc1ccccc12
4.1 | O=c1cc(-c2cccnc2)oc2c1ccc1ccccc12
3.7 | O=c1cc(-c2ccccc2F)oc2c1ccc1ccccc12
0.6 | O=c1cc(-c2ccccc2)sc2c1ccc1ccccc12
10 | O/N=c1\cc(-c2ccccc2)oc2c1ccc1ccccc12
6.1 | O=c1cc(-c2cc(Cl)cc(Cl)c2)oc2c1ccc1ccccc12
2.1 | O=c1cc(-c2ccc(F)c(F)c2)oc2c1ccc1ccccc12
0.5 | O=c1cc(-c2ccccc2Cl)sc2c1ccc1ccccc12
1.4 | CN1CCN(c2cccc(-c3cc(=O)c4ccc5ccccc5c4o3)c2)CC1
3.4 | S=c1cc(-c2cccc(Cl)c2)oc2c1ccc1ccccc12
0.3 | O=c1cc(-c2cccc(Cl)c2)sc2c1ccc1ccccc12
6 | S=c1cc(-c2ccc(Cl)cc2)oc2c1ccc1ccccc12
10.8 | O=c1cc(-c2ccccn2)oc2c1ccc1ccccc12
0.6 | COc1cc(-c2cc(=O)c3ccc4ccccc4c3o2)cc(OC)c1OC

Organism: Homo sapiens
Assay: Selectivity index, ratio of IC50 for human recombinant CYP1A2 to IC50 for human recombinant CYP1B1 using 7-ethoxyresorufin as substrate in presence of glucose-6-phosphate, glucose-6-phosphate dehydrogenase and NADPH-generating system by fluorometry

Ratio IC50 | Structure (SMILES)
28.3 | O=c1cc(-c2cccc(F)c2)oc2c1ccc1ccccc12
26.8 | Fc1cccc(-c2cc(=S)c3ccc4ccccc4c3o2)c1
13.5 | COc1ccc(-c2cc(=O)c3ccc4ccccc4c3o2)cc1
3.9 | O=c1cc(-c2ccncc2)oc2c1ccc1ccccc12
3.7 | O=c1cc(-c2cccnc2)oc2c1ccc1ccccc12
7.2 | O=c1cc(-c2ccccc2F)oc2c1ccc1ccccc12
> 17.5 | O=c1cc(-c2ccccc2)sc2c1ccc1ccccc12
23.3 | O/N=c1\cc(-c2ccccc2)oc2c1ccc1ccccc12
37.4 | O=c1cc(-c2cc(Cl)cc(Cl)c2)oc2c1ccc1ccccc12
5.1 | O=c1cc(-c2ccc(F)c(F)c2)oc2c1ccc1ccccc12
> 11.1 | O=c1cc(-c2ccccc2Cl)sc2c1ccc1ccccc12
31 | CN1CCN(c2cccc(-c3cc(=O)c4ccc5ccccc5c4o3)c2)CC1
32.4 | S=c1cc(-c2cccc(Cl)c2)oc2c1ccc1ccccc12
7.3 | O=c1cc(-c2cccc(Cl)c2)sc2c1ccc1ccccc12
33.3 | S=c1cc(-c2ccc(Cl)cc2)oc2c1ccc1ccccc12
7.2 | O=c1cc(-c2ccccn2)oc2c1ccc1ccccc12
> 196 | COc1cc(-c2cc(=O)c3ccc4ccccc4c3o2)cc(OC)c1OC

Molecular target: T1, Cytochrome P450 1B1
Assay: Potency index, ratio of IC50 for ANF to IC50 for test compound for inhibition of human recombinant CYP1B1 using 7-ethoxyresorufin as substrate in presence of glucose-6-phosphate, glucose-6-phosphate dehydrogenase and NADPH-generating system incubated for 35 mins by fluorometry

Structure (SMILES) | relative potency vs ANF (IC50 ratio) at 35 min
S=c1cc(-c2ccc(Cl)cc2)oc2c1ccc1ccccc12 | 3
